# Target: bovine cardiac myosin (Bos taurus, UniProt Q9BE39)
# Test: Myosin activation assay (PK/LDH-coupled ATPase, bovine cardiac myofibrils)
# Type: biochemical
# Details: AC20 = concentration at which total response is increased by twenty percent
# Procedure: Small molecule agents were assessed for their ability to activate the enzymatic activity of bovine cardiac myosin using a biochemical assay that couples the release of ADP (adenosine diphosphate) from cardiac myosin to an enzymatic coupling system consisting of pyruvate kinase and lactate dehydrogenase (PK/LDH) and monitoring the absorbance decrease of NADH (at 340 nm) as a function of time. PK converts ADP to ATP (adenosine triphosphate) by converting PEP (phosphoenolpyruvate) to pyruvate. Pyruvate is then converted to lactate by LDH by converting NADH (nicotinamide adenine dinucleotide) to NAD (oxidized nicotinamide adenine dinucleotide). The source of cardiac myosin was from bovine heart in the form of skinned myofibrils. Prior to testing small molecule agents, the bovine myofibrils were assessed for their calcium responsiveness and the calcium concentration that achieves either a 50% (pCa50 or pCa=˜6) or <5% (pCa=10) activation of the myofibril system was chosen as the final condition for assessing the activation activity of the small molecule agents. All enzymatic activity was measured in a buffered solution containing 12 mM PIPES (piperazine-N,N′-bis(2-ethanesulfonic acid), 2 mM magnesium chloride at pH 6.8 (PM12 buffer). Final assay conditions were 1 mg/mL of bovine cardiac myofibrils, 0.4 mM PK/LDH, 50 uM ATP, 0.1 mg/mL BSA (bovine serum albumin), 10 ppm antifoam, 2 mM BME, 0.5 mM NADH, 1.5 mM PEP at the desired free calcium concentration required to achieve either 50% or <5% activation of the myofibrils.
# A dilution series of compound was created in DMSO such that the final desired concentration of compound would be achieved in a volume of […] with a fixed DMSO concentration of 3.3% (v/v). Typically a 1 μL of the dilution series was added to a 384 well plate to achieve a 10 point dose response. Following the addition of 14 μL of a solution containing bovine cardiac myofibrils, PK/LDH and a solution of calcium (that achieved the desired activation), the enzymatic reaction was started with the addition of 15 μL of a solution containing ATP, PEP and NADH. The reaction progress was followed in a PerkinElmer Envision plate reader at ambient temperature using clear bottom plates. The plate reader was configured to read absorbance at 340 nm in kinetics mode for 15 minutes. Data were recorded as the slope of the absorbance response to time. The slopes of the absorbance response as a function of time were normalized to slopes on the plate containing DMSO. This normalized rate was then plotted as a function of small molecule concentration and the data was fitted to a four-parameter fit using EXCEL XLfit. The concentration at which the total response is increased by twenty or fifty percent is reported as AC20 or AC50.
# Sequence of bovine cardiac myosin (Q9BE39 whole entry): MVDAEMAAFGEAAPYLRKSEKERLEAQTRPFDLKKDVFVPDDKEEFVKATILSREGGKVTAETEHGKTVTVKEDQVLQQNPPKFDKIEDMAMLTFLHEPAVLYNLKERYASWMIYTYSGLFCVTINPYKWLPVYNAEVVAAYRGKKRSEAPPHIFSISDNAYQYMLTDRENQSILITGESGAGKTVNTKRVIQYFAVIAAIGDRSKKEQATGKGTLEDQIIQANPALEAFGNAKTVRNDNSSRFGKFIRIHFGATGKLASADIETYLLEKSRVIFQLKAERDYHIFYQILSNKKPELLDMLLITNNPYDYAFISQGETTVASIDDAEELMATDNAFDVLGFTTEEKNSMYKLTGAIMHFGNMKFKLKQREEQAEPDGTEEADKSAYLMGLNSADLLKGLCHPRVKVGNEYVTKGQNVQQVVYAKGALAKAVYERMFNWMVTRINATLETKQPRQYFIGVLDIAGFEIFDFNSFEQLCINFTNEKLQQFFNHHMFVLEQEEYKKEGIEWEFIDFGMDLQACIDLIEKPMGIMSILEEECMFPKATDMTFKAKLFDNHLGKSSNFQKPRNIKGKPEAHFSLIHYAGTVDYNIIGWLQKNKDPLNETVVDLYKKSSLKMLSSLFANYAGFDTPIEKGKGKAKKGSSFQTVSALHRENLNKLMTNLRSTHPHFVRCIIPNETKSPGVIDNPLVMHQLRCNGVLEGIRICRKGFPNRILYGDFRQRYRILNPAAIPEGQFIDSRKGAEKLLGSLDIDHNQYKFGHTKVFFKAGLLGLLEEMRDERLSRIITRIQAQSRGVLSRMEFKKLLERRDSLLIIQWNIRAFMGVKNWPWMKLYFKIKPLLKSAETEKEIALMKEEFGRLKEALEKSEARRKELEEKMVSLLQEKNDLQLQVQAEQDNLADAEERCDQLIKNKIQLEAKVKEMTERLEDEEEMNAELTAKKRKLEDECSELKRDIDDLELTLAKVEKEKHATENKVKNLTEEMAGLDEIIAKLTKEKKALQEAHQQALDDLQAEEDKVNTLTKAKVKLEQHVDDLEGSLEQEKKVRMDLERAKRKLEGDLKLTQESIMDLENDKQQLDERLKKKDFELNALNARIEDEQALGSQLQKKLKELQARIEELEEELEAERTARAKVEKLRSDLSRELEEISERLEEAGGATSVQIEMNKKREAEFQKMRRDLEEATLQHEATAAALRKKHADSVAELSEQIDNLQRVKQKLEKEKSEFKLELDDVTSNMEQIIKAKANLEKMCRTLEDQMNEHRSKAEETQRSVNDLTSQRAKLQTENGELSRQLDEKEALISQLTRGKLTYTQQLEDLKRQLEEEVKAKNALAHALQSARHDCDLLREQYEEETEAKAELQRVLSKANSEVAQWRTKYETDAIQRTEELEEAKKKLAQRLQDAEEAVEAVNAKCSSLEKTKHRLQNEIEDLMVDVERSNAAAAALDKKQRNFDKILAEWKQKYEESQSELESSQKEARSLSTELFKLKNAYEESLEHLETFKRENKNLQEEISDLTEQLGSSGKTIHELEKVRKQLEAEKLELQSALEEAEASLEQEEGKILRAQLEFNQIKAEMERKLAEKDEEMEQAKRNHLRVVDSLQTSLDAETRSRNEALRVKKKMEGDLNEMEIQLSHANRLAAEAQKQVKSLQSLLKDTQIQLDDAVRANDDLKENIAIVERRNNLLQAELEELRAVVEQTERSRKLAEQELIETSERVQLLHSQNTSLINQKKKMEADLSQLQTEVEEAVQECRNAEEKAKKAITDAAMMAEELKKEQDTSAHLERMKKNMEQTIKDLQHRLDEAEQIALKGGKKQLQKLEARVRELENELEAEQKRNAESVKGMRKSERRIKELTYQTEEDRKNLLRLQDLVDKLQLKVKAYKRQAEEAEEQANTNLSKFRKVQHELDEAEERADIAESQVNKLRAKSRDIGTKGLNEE
# Sequence of bovine cardiac myosin (P85100 whole entry partner): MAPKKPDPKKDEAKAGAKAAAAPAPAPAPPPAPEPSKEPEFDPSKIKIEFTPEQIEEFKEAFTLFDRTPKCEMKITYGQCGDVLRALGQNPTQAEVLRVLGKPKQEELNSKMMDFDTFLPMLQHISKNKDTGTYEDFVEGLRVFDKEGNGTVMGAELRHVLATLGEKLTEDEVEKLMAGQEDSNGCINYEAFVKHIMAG
# Sequence of bovine cardiac myosin (Q3SZE5 whole entry partner): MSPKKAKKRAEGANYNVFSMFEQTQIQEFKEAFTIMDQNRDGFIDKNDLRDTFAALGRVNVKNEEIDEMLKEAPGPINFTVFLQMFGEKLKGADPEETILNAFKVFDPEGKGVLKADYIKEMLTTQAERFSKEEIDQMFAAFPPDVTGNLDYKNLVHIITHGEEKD
row,Structure (SMILES),Myosin Activation (AC20)
1,"Cc1cc(NC(=O)N2CCC(C(C)(F)S(=O)(=O)c3cccc(F)c3)CC2)cnn1 (stereo not drawn) [Compound 12, 4-(1-Fluoro-1-((3-fluorophenyl)sulfonyl)ethyl)-N-(6-methylpyridazin-4-yl)piperidine-1-carboxamide]",+ (+ represents myosin activation value AC20 > 5 μM)
2,"C[C@@](F)(C1CCN(C(=O)Nc2ccon2)CC1)S(=O)(=O)c1ccc(C(F)(F)F)nc1 [Compound 309, (S)-4-(1-fluoro-1-((6-(trifluoromethyl)pyridin-3-yl)sulfonyl)ethyl)-N-(isoxazol-3-yl)piperidine-1-carboxamide]",+ (+ represents myosin activation value AC20 > 5 μM)
3,"Cn1nc(C(F)F)cc1S(=O)(=O)C(C)(C)C1CCN(C(=O)Nc2ccnc(F)c2)CC1 [Compound 105, 4-(2-((3-(difluoromethyl)-1-methyl-1H-pyrazol-5-yl)sulfonyl)propan-2-yl)-N-(2-fluoropyridin-4-yl)piperidine-1-carboxamide]",+++ (+++ represents myosin activation value AC20 < 2 μM)
4,"Cn1ncc2c(S(=O)(=O)C(F)(F)C3CCN(C(=O)Nc4ccnnc4)CC3)cccc21 [Compound 66, 4-(difluoro((1-methyl-1H-indazol-4-yl)sulfonyl)methyl)-N-(pyridazin-4-yl)piperidine-1-carboxamide]",++ (++ represents myosin activation value AC20 from 2 μM-5 μM)
5,"Cc1cc(NC(=O)N2CCC(C(C)(C)S(=O)(=O)c3cn(C)nc3C(F)F)CC2)no1 [Compound 144, 4-(2-((3-(difluoromethyl)-1-methyl-1H-pyrazol-4-yl)sulfonyl)propan-2-yl)-N-(5-methylisoxazol-3-yl)piperidine-1-carboxamide]",+ (+ represents myosin activation value AC20 > 5 μM)
6,"Cc1cc(S(=O)(=O)C(F)(F)C2CCN(C(=O)Nc3ccnnc3)CC2)n(C2CC2)n1 [Compound 90, 4-(((1-cyclopropyl-3-methyl-1H-pyrazol-5-yl)sulfonyl)difluoromethyl)-N-(pyridazin-4-yl)piperidine-1-carboxamide]",+ (+ represents myosin activation value AC20 > 5 μM)
7,"CC(C)(C1CCN(C(=O)Nc2ccnnc2)CC1)S(=O)(=O)c1ccc(C#N)cc1 [Compound 180, 4-(2-((4-cyanophenyl)sulfonyl)propan-2-yl)-N-(pyridazin-4-yl)piperidine-1-carboxamide]",++ (++ represents myosin activation value AC20 from 2 μM-5 μM)
8,"Cc1ccc(NC(=O)N2CCC(C(C)(C)S(=O)(=O)c3cn(C)nc3C(F)F)CC2)cn1 [Compound 155, 4-(2-((3-(difluoromethyl)-1-methyl-1H-pyrazol-4-yl)sulfonyl)propan-2-yl)-N-(6-methylpyridin-3-yl)piperidine-1-carboxamide]",++ (++ represents myosin activation value AC20 from 2 μM-5 μM)
9,"O=C(Nc1ccns1)N1CCC(C2(S(=O)(=O)c3cccc(F)c3)CC2)CC1 [Compound 217, 4-(1-((3-fluorophenyl)sulfonyl)cyclopropyl)-N-(isothiazol-5-yl)piperidine-1-carboxamide]",+++ (+++ represents myosin activation value AC20 < 2 μM)
10,"Cn1cc(S(=O)(=O)C(C)(C)C2CCN(C(=O)Nc3ccnnc3)CC2)c(Cl)n1 [Compound 103, 4-(2-((3-chloro-1-methyl-1H-pyrazol-4-yl)sulfonyl)propan-2-yl)-N-(pyridazin-4-yl)piperidine-1-carboxamide]",++ (++ represents myosin activation value AC20 from 2 μM-5 μM)
11,"CC(C)(C1CCN(C(=O)Nc2nccs2)CC1)S(=O)(=O)c1cccc(F)c1 [Compound 156, 4-(2-((3-fluorophenyl)sulfonyl)propan-2-yl)-N-(thiazol-2-yl)piperidine-1-carboxamide]",+ (+ represents myosin activation value AC20 > 5 μM)
12,"Cc1cnccc1NC(=O)N1CCC(C(C)(C)S(=O)(=O)c2cccc(F)c2)CC1 [Compound 214, 4-(2-((3-fluorophenyl)sulfonyl)propan-2-yl)-N-(3-methylpyridin-4-yl)piperidine-1-carboxamide]",+ (+ represents myosin activation value AC20 > 5 μM)
13,"Cc1cc(NC(=O)N2CCC([C@](C)(F)S(=O)(=O)c3cn(C)nc3C(F)F)CC2)ccn1 [Compound 233, (R)-4-(1-((3-(difluoromethyl)-1-methyl-1H-pyrazol-4-yl)sulfonyl)-1-fluoroethyl)-N-(2-methylpyridin-4-yl)piperidine-1-carboxamide]",+++ (+++ represents myosin activation value AC20 < 2 μM)
14,"Cn1nccc1S(=O)(=O)C(C)(C)C1CCN(C(=O)Nc2ccon2)CC1 [Compound 128, N-(isoxazol-3-yl)-4-(2-((1-methyl-1H-pyrazol-5-yl)sulfonyl)propan-2-yl)piperidine-1-carboxamide]",++ (++ represents myosin activation value AC20 from 2 μM-5 μM)
15,"CC(C)(C1CCN(C(=O)Nc2cnns2)CC1)S(=O)(=O)c1ccc(C#N)cc1 [Compound 179, 4-(2-((4-cyanophenyl)sulfonyl)propan-2-yl)-N-(1,2,3-thiadiazol-5-yl)piperidine-1-carboxamide]",+++ (+++ represents myosin activation value AC20 < 2 μM)
16,"Cc1ccc(NC(=O)N2CCC(C(C)(C)S(=O)(=O)c3cccc(F)c3)CC2)nn1 [Compound 121, 4-(2-((3-fluorophenyl)sulfonyl)propan-2-yl)-N-(6-methylpyridazin-3-yl)piperidine-1-carboxamide]",+ (+ represents myosin activation value AC20 > 5 μM)
17,"Cn1cc(S(=O)(=O)C(F)(F)C2CCN(C(=O)Nc3ccon3)CC2)c(C(F)F)n1 [Compound 82, 4-(((3-(difluoromethyl)-1-methyl-1H-pyrazol-4-yl)sulfonyl)difluoromethyl)-N-(isoxazol-3-yl)piperidine-1-carboxamide]",+ (+ represents myosin activation value AC20 > 5 μM)
18,"Cn1nccc1S(=O)(=O)C(C)(F)C1CCN(C(=O)Nc2ccnc(F)c2)CC1 (stereo not drawn) [Compound 226, 4-(1-fluoro-1-((1-methyl-1H-pyrazol-5-yl)sulfonyl)ethyl)-N-(2-fluoropyridin-4-yl)piperidine-1-carboxamide]",+ (+ represents myosin activation value AC20 > 5 μM)
19,"Cc1cc(OC(F)(F)F)ccc1S(=O)(=O)C(F)(F)C1CCN(C(=O)Nc2ccnnc2)CC1 [Compound 73, 4-(difluoro((2-methyl-4-(trifluoromethoxy)phenyl)sulfonyl)methyl)-N-(pyridazin-4-yl)piperidine-1-carboxamide]",++ (++ represents myosin activation value AC20 from 2 μM-5 μM)
20,"Cn1nccc1S(=O)(=O)C1(C2CCN(C(=O)Nc3ccnnc3)CC2)CCC1 [Compound 174, 4-(1-((1-methyl-1H-pyrazol-5-yl)sulfonyl)cyclobutyl)-N-(pyridazin-4-yl)piperidine-1-carboxamide]",+++ (+++ represents myosin activation value AC20 < 2 μM)
21,"Cn1nc(C(F)(F)F)cc1S(=O)(=O)C(C)(F)C1CCN(C(=O)Nc2ccnc(F)c2)CC1 (stereo not drawn) [Compound 251, 4-(1-fluoro-1-((1-methyl-3-(trifluoromethyl)-1H-pyrazol-5-yl)sulfonyl)ethyl)-N-(2-fluoropyridin-4-yl)piperidine-1-carboxamide]",++ (++ represents myosin activation value AC20 from 2 μM-5 μM)
22,"CC(F)(C1CCN(C(=O)Nc2ccc(F)nc2)CC1)S(=O)(=O)c1cccc(C#N)c1 (stereo not drawn) [Compound 241, 4-(1-((3-cyanophenyl)sulfonyl)-1-fluoroethyl)-N-(6-fluoropyridin-3-yl)piperidine-1-carboxamide]",+ (+ represents myosin activation value AC20 > 5 μM)
23,"COc1c(F)cccc1S(=O)(=O)C(F)(F)C1CCN(C(=O)Nc2ccnnc2)CC1 [Compound 61, 4-(difluoro((3-fluoro-2-methoxyphenyl)sulfonyl)methyl)-N-(pyridazin-4-yl)piperidine-1-carboxamide]",++ (++ represents myosin activation value AC20 from 2 μM-5 μM)
24,"O=C(Nc1ccnnc1)N1CCC(C(F)(F)S(=O)(=O)c2cccn3ccnc23)CC1 [Compound 22, 4-(Difluoro(imidazo[1,2-a]pyridin-8-ylsulfonyl)methyl)-N-(pyridazin-4-yl)piperidine-1-carboxamide]",+ (+ represents myosin activation value AC20 > 5 μM)

# — patent US11123337B2, “4-methylsulfonyl-substituted piperidine urea compounds” (MYOKARDIA, INC., priority 2015, dated 2021)
